{"source": "patent US20240199555A1", "about": "“APPLICATIONS OF BIASED LIGANDS OF THE SEROTONIN 5-HT7 RECEPTOR FOR THE TREATMENT OF PAIN, MULTIPLE SCLEROSIS AND THE CONTROL OF THERMOREGULATION” (Centre National de la Recherche Scientifique, priority 2021, published 2024)", "key": {"[1]": {"tested_on": "neuronal culture endogenously expressing 5-HT7R", "assay": "pERK immunocytochemistry in mixed neuronal cultures", "format": "cell-based, mice", "conditions": "10 μM; 7, 15, 30 min", "from_the_text": "FIG. 4: Serodolin stimulation induces ERK phosphorylation in neuronal culture. […] These images are representative of two independent experiments. (B) pERK fluorescence intensity (AU) from immunofluorescence staining. Results represent mean±SEM of values obtained in two independent experiments (150-200 cells counted per group). ****P<0.0001 ***P<0.001 **P<0.01 *P<0.05. Statistical analysis was done using Tukey's multiple comparison test. Cerebral cortex from embryos (E15) mice were collected and mechanically dissociated in 1 mL of HBSS (-Ca^2+) (Sigma) with HEPES (H3375, Sigma). […] Neuronal differentiation was performed in 24-well plates, during 7 days with 3 medium changes per week. Stimulated neuronal culture were fixed with 4% paraformaldehyde in PBS during 10 min and then washed with PBS. Cells were saturated with 0.3% Triton X-100 in 1% BSA in TBS-FCS 10% for 1 hr, followed by three washes in TBS and incubated overnight with rabbit anti-pERK (9101 1/200, Cell Signaling) and mouse anti-MAP2 (119942 1/250, Sigma), anti-GFAP (G61711/250, Sigma) in TBS with 1% BSA, 10% FCS and 0.3% Triton X-100. […] Images were processed with the Zen software analyzed with Image J."}, "mice [2]": {"tested_on": "mice", "assay": "Acetic acid-induced writhing test", "format": "in vivo", "procedure": "(§1) FIG. 9: Analgesic effect of Serodolin in the acetic acid-induced writhing test. In this test, nociception was induced by an intraperitoneally injection (ip) of 0.1 ml/10 g acid acetic solution (10 ml/kg) in peripheral origin. Serodolin at increasing dosage was administrated by oral (po), intravenous (iv) or subcutaneous (sc) route before acid acetic injection (upper panel). Positive control animals were pretreated morphine (3 mg/kg, sc) 10 minutes before acetic acid. Five minutes after i.p. injection of acetic acid the number of writhing was recorded for 10 minutes. Data mean±SEM of values obtained from a representative experiment (n=10 animals/group). ****p<0.0001 ***p<0.001 **p<0.01 *p<0.05 as compared with the control group (Vh).\nas §1, with “16:” for “9:”, “MOA51” for “Serodolin”, “i.p.injection” for “i.p. injection”, “animals/group).” for “animals/group). ****p<0.0001 ***p<0.001”, “**p<0.01” for “**p<0.01 *p<0.05”\nWrithing tests: Mice (25-35 g). Groups of mice (n=10) received by oral, subcutaneous or intravenous route Serodolin at different doses (0.1-10 mg/kg) one hour before intraperitoneally injection of 1% acetic acid in a volume of 10 ml/kg. Control group received vehicle (10 ml/kg, solution of 20% DMSO and 5% tween 80). The test was carried out 5 minutes later after acid acetic injection. The characteristic writhing responses have been observed individually and counted for 10 minutes.\nAnalgesic activity was first evaluated using the acetic acid abdominal constriction test (writhing test), a chemical model of visceral pain. We evaluated the dose-response effect of Serodolin following single oral, intravenous and subcutaneous administration of the compound one hour before injection of acetic acid.\nAnalgesic activity was evaluated using the acetic acid abdominal constriction test (writhing test), a chemical model of visceral pain. We evaluated the dose-response effect of MOA51 following single oral, intravenous and subcutaneous administration of the compound one hour before injection of acetic acid. MOA51 administered by the oral route induced statistically significant dose-dependent decreases in the number of writhings at and above the dose of 1 mg/kg. By the intravenous route, MOA51 induced dose-dependent decreases in the number of writhings at and above the dose of 0.1 mg/kg."}, "HEK-293 mock cells": {"tested_on": "HEK-293 mock cells", "assay": "Control in mock-transfected HEK-293 cells (cAMP, ERK phosphorylation)", "format": "cell-based, human", "procedure": "ERK phosphorylation was monitored by western blotting after treatment of cells with 10 μM of ligands at different times ranging from 2 to 60 minutes. […] The kinetics of ERK phosphorylation elicited by 5-CT, Serodolin and MOA-51 were very similar: activation was fast and transient, and reached a pick between 2 and 7 minutes after drug exposure. However, ERK phosphorylation-induced by Serodolin and MOA-51 was more protracted compared to 5-CT, the reference agonist."}, "mice [3]": {"tested_on": "mice", "assay": "CFA-induced mechanical hypersensitivity, Von Frey filament test", "format": "in vivo", "conditions": "5 mg/kg, s.c.", "quoted_text": "Mechanical hypersensitivity was evaluated after CFA intraplantar injection by using the Von Frey test. […] Mechanical hypersensitivity was performed 24 hrs later (pre-treatment) CFA intraplantar injection into the left hind paw (ipsilateral paw). […] The ligand effects (E55888 or Serodolin) were evaluated 30 min and 24 hrs after in the ipsilateral paw. Data are means±SEM of values obtained in 2 independent experiments (n=8 to 10 per group). ****p<0.0001 ***p<0.001 **p<0.01 *p<0.05. Statistical analysis was done using Kruskal Wallis test.\nVon Frey filament test. Before inducing peripheral inflammation, each animal was tested on the left hind paw with Von Frey Filament to determine its basal sensibility level. Then, peripheral inflammation was induced by intraplantar injection of Complete Freund's Adjuvant (CFA-10 μL) (F5881, Sigma) in the left hind paw (ipsilateral paw) and mechanical allodynia was measure (pre-treatment). Mice were divided into two groups, one with E55888 (5 mg/kg) and the other with Serodolin (5 mg/kg) subcutaneous injections in the ipsilateral paw. Both in absence (−) or in presence (+) of the 5-HT7R antagonist SB269960 (5 mg/kg), intraperitoneally, 20 min before the agonist injections (8-10 mice per group).\nThe inventors wanted to evaluate the effect of Serodolin on mechanical hypersensitivity in comparison with E-55888 after CFA injection."}, "mice [4]": {"tested_on": "mice", "assay": "Tail immersion test (50° C.)", "format": "in vivo", "procedure": "(A) Experimental protocol summary used. (B) Mice were subcutaneously injected with two different doses of the 5-HT7 receptor agonist Serodolin, 1 mg/kg or 5 mg/kg and 10 min later their tail extremity was immersed in water heated to 50 degrees. […] The effect of injections (Serodolin or E55888) was evaluated at TO, 30 min and 60 min corresponding to 10, 40 and 70 min after compound injections. […] Their tail extremity was immersed in water heated to 50 degrees at TO (E) or 30 min later (F) corresponding to 10 and 40 min after agonist injections. […] Statistical analysis was done using Tukey's multiple comparison test.\nTail immersion test. Nociception was assessed with the tail immersion test, 10 min and 40 min after E55888 (5 mg/kg) or Serodolin (5 mg/kg) tail subcutaneous injections, in the water heated to 50° C. Vehicle (20% DMSO, 5% Tween 80 diluted in PBS solution) was used as a control group. These different groups were intraperitoneally injected (+) or not (−) with the 5-HT7R antagonist SB269960 (5 mg/kg) 10 min before the ligand injection. The tail withdrawal latency (s) was measured for each animal."}}, "data": [{"compound": "O=c1[nH]c2ccccc2n1CN1CCN(c2ccc(F)cc2)CC1", "note": "[Serodolin]", "values": [{"measurement": "ERK phosphorylation in neuronal culture", "setting": "[1]", "value": "ERK phosphorylation also occurs in neuronal culture"}, {"measurement": "inhibition of the writhing assay response", "setting": "mice [2]; at the highest dosage", "value": "up to 87%"}, {"measurement": "dose giving significant decrease in number of writhings, subcutaneous route", "setting": "mice [2]; s.c., one hour before acetic acid", "value": 0.1, "unit": "mg/kg"}, {"measurement": "ERK phosphorylation in HEK-293 mock cells", "setting": "HEK-293 mock cells", "value": "neither Serodolin, nor MOA-51 were able to induce ERK phosphorylation"}, {"measurement": "CFA-induced mechanical hypersensitivity, 30 minutes after administration", "setting": "mice [3]; 30 minutes", "value": "Significantly decreased paw withdrawals thresholds (anti-allodynia)"}, {"measurement": "anti-allodynic effect 24 later", "setting": "mice [3]; 24 hrs", "value": "still significant"}, {"measurement": "duration of effect", "setting": "mice [4]; 5 mg/kg", "value": "> 70", "unit": "min"}, {"measurement": "tail-immersion latencies", "setting": "mice [4]; 1 and 5 mg/kg, s.c.", "value": "significant dose-dependent increase in the tail-immersion latencies"}, {"measurement": "anti-nociceptive effect in 5-HT7R KO mice", "setting": "mice [4]; 5-HT7R KO mice, subcutaneous", "value": "did not exert any anti-nociceptive effect"}, {"measurement": "onset of effect post administration", "setting": "mice [4]; s.c.", "value": "≤ 10", "unit": "min"}]}]}
